Reference: patent US20050113413A1, “Naphthalene-1,5-disulfonic acid salts of a substituted 4-amino-1-(pyridylmethyl)piperidine compound” (priority 2003, published 2005)

How the values were obtained:
[1] = Chemical stability of salt forms (change in purity by HPLC upon storage); format: physicochemical; details: 40° C. and 75% relative humidity, 7 days, HPLC Method D
Description: The chemical stability of each salt form was evaluated by determining the change in purity of the sample upon storage of the salt form at 40° C.
Prior to storage, each salt form was analyzed by HPLC (Method D) to determine sample purity and in particular, to determine the amount of the following impurities present in the sample: • A. 3-[4-{N-[7-(3-(S)-1-Carbamoyl-1,1-diphenylmethyl)pyrrolidin-1-yl)hept-1-yl]-N-(isopropyl)amino}piperidin-1-ylmethyl]-4-methoxy-1-methylpyridinium Salt (Impurity A); • B. 4-{N-[7-(3-(S)-1-Carbamoyl-1,1-diphenylmethyl)pyrrolidin-1-yl)hept-1-yl]-N-(isopropyl)amino}-1-(4-oxo-1,4-dihydropyrid-3-ylmethyl)piperidine (Impurity B).
Approximately 50-100 mg of the salt form was then placed in two heat sealed low density polyethylene bags. The bags were then placed into a stability chamber that was previously set at 40° C. and 75% relative humidity. After 7 days, the bags were removed and the contents were analyzed by HPLC.

[2] = biological target: T1, hM2 muscarinic receptor subtype (Homo sapiens, UniProt P08172); assay: Radioligand binding assay ([3H]NMS displacement), hM2; details: [3H]NMS at 1 nM, CHO cell membranes, 60 minutes at 37° C.
T1 construct: expressed in transfected cells; membranes prepared
T1 sequence (P08172 1-466): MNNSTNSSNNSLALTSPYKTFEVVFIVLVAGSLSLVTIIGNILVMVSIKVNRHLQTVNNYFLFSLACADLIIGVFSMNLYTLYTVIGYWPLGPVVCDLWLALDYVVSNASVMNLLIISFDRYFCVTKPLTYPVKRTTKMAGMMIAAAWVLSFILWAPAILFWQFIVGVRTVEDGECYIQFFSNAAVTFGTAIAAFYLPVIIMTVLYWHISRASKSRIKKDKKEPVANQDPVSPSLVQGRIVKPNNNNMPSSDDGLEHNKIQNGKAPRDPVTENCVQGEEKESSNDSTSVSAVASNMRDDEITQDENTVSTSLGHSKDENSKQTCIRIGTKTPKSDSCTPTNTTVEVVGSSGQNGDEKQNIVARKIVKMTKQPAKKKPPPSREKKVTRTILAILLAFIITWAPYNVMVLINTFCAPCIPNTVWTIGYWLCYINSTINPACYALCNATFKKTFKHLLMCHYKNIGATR
Description: (§1) CHO (Chinese hamster ovary) cell lines stabilely expressing cloned human hM1, hM2, hM3 and hM4 muscarinic receptor subtypes, respectively, were grown to near confluency in medium consisting of HAM's F-12 supplemented with 10% FBS (Fetal Bovine Serum) and 250 μg/mL Geneticin. The cells were grown in a 5% CO2, 37° C. incubator and lifted with dPBS+2 mM EDTA. Cells were collected by 5 minute centrifugation at 650×g, and cell pellets were either stored frozen at −80° C. or membranes were prepared immediately. For membrane preparation, cell pellets were resuspended in lysis buffer and homogenized with a Polytron PT-2100 tissue disrupter (Kinematica AG; 20 seconds×2 bursts). Crude membranes were centrifuged at 40,000×g for 15 minutes at 4° C. […] Protein concentration of the membrane suspension was determined by the method of Lowry, O. et al., (1951) Journal of Biochemistry: 193, 265. […]
(§2) Radioligand binding assays were performed in 96-well microtiter plates in a total assay volume of 100 μL. […] Filter plates were rinsed three times with wash buffer (10 mM HEPES) to remove unbound radioactivity. […] The plates were then counted in a PerkinElmer Topcount liquid scintillation counter (PerkinElmer Inc., Wellesley, Mass.). Binding data were analyzed by nonlinear regression analysis with the GraphPad Prism Software package (GraphPad Software, Inc., San Diego, Calif.) using the one-site competition model. […]

[3] = biological target: T2, hM3 muscarinic receptor subtype (Homo sapiens, UniProt P20309); assay: Radioligand binding assay ([3H]NMS displacement), hM3 relative to hM2; details: ratio of Ki values
T2 construct: expressed in transfected cells; membranes prepared
Description: as §1, §2

T2 sequence (P20309 whole entry): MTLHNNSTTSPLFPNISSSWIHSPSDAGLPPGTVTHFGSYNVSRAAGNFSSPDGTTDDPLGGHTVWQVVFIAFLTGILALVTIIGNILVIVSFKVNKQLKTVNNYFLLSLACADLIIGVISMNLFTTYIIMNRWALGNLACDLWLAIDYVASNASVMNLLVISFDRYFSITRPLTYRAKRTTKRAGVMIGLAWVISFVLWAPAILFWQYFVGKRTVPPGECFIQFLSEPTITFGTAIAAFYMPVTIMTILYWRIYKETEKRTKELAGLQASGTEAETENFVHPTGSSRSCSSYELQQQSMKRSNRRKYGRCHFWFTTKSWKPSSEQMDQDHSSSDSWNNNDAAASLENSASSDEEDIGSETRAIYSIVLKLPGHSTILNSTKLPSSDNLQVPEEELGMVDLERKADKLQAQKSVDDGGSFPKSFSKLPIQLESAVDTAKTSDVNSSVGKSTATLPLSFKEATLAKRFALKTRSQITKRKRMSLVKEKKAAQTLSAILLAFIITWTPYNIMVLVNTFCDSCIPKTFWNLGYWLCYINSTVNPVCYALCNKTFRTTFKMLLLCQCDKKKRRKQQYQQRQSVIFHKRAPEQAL

COc1ccncc1CN1CCC(N(CCCCCCCN2CC[C@@H](C(C(N)=O)(c3ccccc3)c3ccccc3)C2)C(C)C)CC1 [Example 6]
% Change in Impurity A [1]: <0.1% | % Change in Impurity B [1]: <0.1% | % Change in Purity of Salt ([1]; heat sealed polyethylene bags): 1.2% | Ki [2]: < 1 nM | hM3/hM2 ratio [3]: greater than 40
